“And” between values parts separate entries of the source, which are not always exact repeats. Equal values may be shown once. The source made the active and inactive calls. Some results are limits rather than exact numbers.

The target in the first test is T1, Tyrosyl-DNA phosphodiesterase 2 (Homo sapiens, UniProt O95551).
T1 sequence (O95551 whole entry): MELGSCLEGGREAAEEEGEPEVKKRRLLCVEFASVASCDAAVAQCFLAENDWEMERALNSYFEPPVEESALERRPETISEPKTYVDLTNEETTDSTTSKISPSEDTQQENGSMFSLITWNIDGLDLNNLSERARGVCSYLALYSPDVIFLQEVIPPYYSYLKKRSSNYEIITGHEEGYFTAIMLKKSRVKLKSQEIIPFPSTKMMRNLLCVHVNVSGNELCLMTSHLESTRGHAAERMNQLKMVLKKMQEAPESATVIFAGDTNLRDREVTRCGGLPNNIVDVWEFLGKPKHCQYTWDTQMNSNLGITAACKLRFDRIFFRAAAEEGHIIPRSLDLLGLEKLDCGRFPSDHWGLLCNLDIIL
Description: human TDP2 enzyme inhibitors, dose response, biochemical, epi absorbance, IC50 (AID 743297).
Conditions: not given
`COc1ccc(C(=O)Nc2nc3c(s2)Cc2cc(OC)ccc2-3)cc1`: the IC50 is 11.2 µM (inactive).
Turning to `Cc1oc2c(c1C(=O)c1ccccc1)C(=O)C(=O)c1ccccc1-2`, the IC50 was 14.2 µM (inactive).
On the same count and under the same terms, the result for `O=C1CCCC2=C1C1(O)C(=O)c3ccccc3C1(O)O2` (stereo not given) reads 8.01 µM (active); that for `COc1cc(NCCCNC(C)C)c2nccc(C)c2c1`, > 128 µM (inactive).

In another test the target is T2, Apoptotic protease-activating factor 1 (Homo sapiens, UniProt O14727).
T2 sequence (O14727 whole entry): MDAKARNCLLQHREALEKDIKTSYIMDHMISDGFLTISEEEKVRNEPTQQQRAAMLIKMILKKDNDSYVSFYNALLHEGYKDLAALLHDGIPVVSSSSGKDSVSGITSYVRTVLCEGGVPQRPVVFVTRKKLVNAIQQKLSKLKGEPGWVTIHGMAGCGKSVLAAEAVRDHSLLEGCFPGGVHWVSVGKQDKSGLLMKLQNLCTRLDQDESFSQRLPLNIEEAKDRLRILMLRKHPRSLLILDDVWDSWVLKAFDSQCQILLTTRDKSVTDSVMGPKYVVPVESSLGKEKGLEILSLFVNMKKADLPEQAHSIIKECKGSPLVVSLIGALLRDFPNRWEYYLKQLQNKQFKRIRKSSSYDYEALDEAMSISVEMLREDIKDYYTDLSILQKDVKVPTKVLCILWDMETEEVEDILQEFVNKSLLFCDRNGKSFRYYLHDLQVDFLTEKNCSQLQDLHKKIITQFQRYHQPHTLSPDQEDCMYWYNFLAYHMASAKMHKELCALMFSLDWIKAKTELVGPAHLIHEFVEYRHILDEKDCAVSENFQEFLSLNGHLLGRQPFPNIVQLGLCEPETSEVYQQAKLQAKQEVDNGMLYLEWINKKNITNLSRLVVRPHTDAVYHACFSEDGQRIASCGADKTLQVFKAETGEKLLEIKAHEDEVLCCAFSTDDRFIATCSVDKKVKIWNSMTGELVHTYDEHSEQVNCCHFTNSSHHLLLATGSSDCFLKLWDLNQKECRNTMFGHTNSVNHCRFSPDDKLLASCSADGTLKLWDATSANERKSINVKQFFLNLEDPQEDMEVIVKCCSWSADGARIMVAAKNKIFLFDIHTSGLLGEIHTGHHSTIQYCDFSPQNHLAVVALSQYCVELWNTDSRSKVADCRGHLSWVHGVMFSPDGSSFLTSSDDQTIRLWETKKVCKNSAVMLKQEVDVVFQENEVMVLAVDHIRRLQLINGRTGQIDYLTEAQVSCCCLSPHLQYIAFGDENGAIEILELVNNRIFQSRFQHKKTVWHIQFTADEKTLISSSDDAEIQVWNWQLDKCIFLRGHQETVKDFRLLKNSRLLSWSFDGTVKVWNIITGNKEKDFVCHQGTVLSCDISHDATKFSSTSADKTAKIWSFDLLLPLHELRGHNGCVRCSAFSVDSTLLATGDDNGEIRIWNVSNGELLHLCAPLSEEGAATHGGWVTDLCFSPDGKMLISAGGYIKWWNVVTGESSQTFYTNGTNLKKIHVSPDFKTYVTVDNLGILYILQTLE
In kind it is functional.
Conditions: not given
For `CCN1/C(=C/c2ccc3cc(C)ccc3[n+]2CC)Sc2cc(C)c(C)cc21`, the IC50 was 23.9 µM (active).
The same measure, in the same setting: the value for `COc1ccc(C(=O)Nc2nc3c(s2)Cc2cc(OC)ccc2-3)cc1` was 51.1 µM (active); that for `O=C1CCCC2=C1C1(O)C(=O)c3ccccc3C1(O)O2` (stereo not given) was 13.1 µM (active).
On to `O=C1C(Cl)=C(NCCN2CCCCC2)C(=O)c2ccccc21`, for which the IC50 was 5.4 µM (active).

Another test deals with Small ubiquitin-related modifier 1 (Homo sapiens, UniProt P63165). Kind of test: inhibitors of SUMO1 partner interactions, dose response, biochemical, FRET (AID 624383). The following applies: read-out: IC50_Mean. In kind it is functional.
Chain of Small ubiquitin-related modifier 1 (P63165 whole entry): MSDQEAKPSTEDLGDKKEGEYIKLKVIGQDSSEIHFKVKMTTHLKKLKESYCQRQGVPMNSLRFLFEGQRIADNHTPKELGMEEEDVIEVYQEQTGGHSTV
With `Nc1ccc2nc3c(O)nc(S)nc3nc2c1`, the IC50 is 17.5 µM (active).
For `CSc1ccc(C=NNc2ccc(S(=O)(=O)Nc3ccccc3C(=O)O)cc2[N+](=O)[O-])cc1`, the IC50 is 50.8 µM (inactive).

In another test the target is T3, Histone-lysine N-methyltransferase NSD2 (Homo sapiens, UniProt O96028).
T3 sequence (O96028 whole entry): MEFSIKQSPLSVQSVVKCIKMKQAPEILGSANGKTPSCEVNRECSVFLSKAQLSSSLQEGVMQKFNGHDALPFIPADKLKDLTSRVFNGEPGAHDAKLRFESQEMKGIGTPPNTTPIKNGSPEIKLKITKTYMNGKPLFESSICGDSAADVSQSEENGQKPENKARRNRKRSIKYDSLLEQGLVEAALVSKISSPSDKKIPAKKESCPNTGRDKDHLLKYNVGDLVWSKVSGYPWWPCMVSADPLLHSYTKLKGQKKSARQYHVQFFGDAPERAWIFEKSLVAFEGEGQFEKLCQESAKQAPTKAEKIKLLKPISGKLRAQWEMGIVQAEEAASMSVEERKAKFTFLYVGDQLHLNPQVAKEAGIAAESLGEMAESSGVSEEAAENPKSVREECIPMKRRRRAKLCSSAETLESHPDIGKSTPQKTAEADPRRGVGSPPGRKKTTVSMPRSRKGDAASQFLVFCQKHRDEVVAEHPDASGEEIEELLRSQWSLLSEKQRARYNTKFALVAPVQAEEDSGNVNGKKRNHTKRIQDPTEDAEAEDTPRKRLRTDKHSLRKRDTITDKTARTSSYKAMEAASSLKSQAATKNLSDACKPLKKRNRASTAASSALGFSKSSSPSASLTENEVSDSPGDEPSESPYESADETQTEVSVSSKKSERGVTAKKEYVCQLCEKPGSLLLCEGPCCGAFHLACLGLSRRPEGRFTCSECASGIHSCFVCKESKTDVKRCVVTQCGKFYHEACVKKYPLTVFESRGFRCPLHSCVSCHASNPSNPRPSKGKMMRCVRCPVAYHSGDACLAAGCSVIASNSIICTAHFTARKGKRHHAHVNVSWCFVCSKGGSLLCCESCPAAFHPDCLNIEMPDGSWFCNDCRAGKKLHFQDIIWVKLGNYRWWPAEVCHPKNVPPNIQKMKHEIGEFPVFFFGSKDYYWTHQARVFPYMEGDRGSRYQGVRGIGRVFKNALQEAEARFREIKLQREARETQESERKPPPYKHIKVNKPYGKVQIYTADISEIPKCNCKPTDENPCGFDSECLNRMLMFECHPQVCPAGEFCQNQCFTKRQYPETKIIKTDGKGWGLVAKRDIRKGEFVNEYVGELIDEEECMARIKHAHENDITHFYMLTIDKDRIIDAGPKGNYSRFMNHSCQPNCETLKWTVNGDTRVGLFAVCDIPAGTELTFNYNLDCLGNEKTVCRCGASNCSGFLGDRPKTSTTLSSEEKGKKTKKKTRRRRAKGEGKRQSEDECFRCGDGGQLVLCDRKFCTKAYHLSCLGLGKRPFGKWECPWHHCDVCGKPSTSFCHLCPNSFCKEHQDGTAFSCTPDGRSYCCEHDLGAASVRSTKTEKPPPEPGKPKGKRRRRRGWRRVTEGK
In kind it is biochemical.
Conditions: not given
With `CCN1/C(=C/c2ccc3cc(C)ccc3[n+]2CC)Sc2cc(C)c(C)cc21`, the AC50 was 19.5 µM (active) and 8.3 µM (active).
Same read-out and setting: the value for `Cc1oc2c(c1C(=O)c1ccccc1)C(=O)C(=O)c1ccccc1-2` was 14.3 µM (active); that for `O=C1C(Cl)=C(NCCN2CCCCC2)C(=O)c2ccccc21` was 6.54 µM (active).
Turning to `COc1cc(NCCCNC(C)C)c2nccc(C)c2c1`, the AC50 is 9.71 µM (active).
With `CC(/C=C1\SC(=S)N(NS(=O)(=O)c2ccccc2)C1=O)=C\c1ccccc1`, the AC50 is 13 µM (active).

As usually defined, the AC50 is the concentration at which the activity in the assay is half-maximal.
